# According to US10342806B2, “Hormone treatment for age-related hearing loss-presbycusis” (priority 2014, dated 2019):
# Peptide text beside a SMILES is read from it. * marks the point of attachment. Cbz = O=C(OCc1ccccc1)*
# Assays:
# Type in all cases: cell-based, human
# LC3-I, -II, and LAMP-2 = assay: Lysosome pathway markers in HT-29 cells, Western blot; details: ALD 1 μM, MG-132 20 μM, CQ 50 μM, 9 h
# Method: FIG. 23(A) is a blot and showing ubiquitination, but not the lysosome pathway, is involved in the regulation of NKCC1 by ALD. To exclude the possibility that depletion of free ubiquitin by the prolonged MG-132 treatment triggered nonspecific inhibition of lysosome degradation of NKCC1 and investigate whether ALD is involved in a lysosome pathway, a parallel experiment with chloroquine (CQ) was performed. Here, the positive marks (+) indicate application of ALD (1 μM), MG132 (20 μM), CQ (50 μM), ALD+CQ, and MG132+CQ for 9 h. An autophagosome marker, autophagy-related gene 8 named as light chain 3 (LC3), and the lysosome-associated membrane protein 2 (LAMP-2) were used was indicators of lysosome pathway activation (phagocytic activity) under treatment with CQ.
# (§1) Western blot. Cell lysates were prepared in RIPA buffer (Pierce 89901; Thermo Scientific, Waltham, Mass.) with protease inhibitor cocktail (78430; Thermo Scientific). Cell samples were homogenized in buffer, followed by centrifugation at 2,000 rpm for 10 min at 4° C. Supernatants were subjected to Western blot analysis by loading 200 μg of protein per lane, after the protein concentrations were determined by Bradford protein assay. Proteins were fractionated by SDS-PAGE gel electrophoresis and transferred to a PVDF blotting membrane (Whatman, Piscataway, N.J.). The blot was incubated with primary antibodies against β-actin and Na—K-2C1 cotransport protein (Cell Signaling, Danvers Mass.); primary antibodies for p-SGK1, SGK1, pNedd4-2, and Nedd4-2 were utilized (concentration 1:1,000). The secondary antibody was horseradish peroxidaseconjugated goat anti-rabbit IgG (1:2,000; Cell Signaling).
# Ubiquitination, but not the lysosome pathway, is involved in NKCC1 induction by ALD. A parallel experiment was performed with chloroquine (CQ), a lysosome inhibitor, to exclude the possibility that prolonged MG-132 treatment depleted free ubiquitin by nonspecific inhibition of lysosome degradation of NKCC1 and to confirm whether or not ALD is involved in a lysosome pathway. […]
# NKCC1 [1] = assay: NKCC1 protein expression in HT-29 cells, Western blot
# From the text: Cell culture and buffers. […] Arch Oral Biol 52: 411-416, 2007). These include, for example, studies of COMM domain-containing protein 1, which is involved in NKCC1 ubiquitination and transcriptional regulation of epithelial Na^+ channels (ENaC) located in the apical membrane of polarized epithelial cells, in particular, cells in the colon, kidney, and lung, by ALD (Cohen, et al., Induced differentiation in HT29, a human colon adenocarcinoma cell line. J Cell Sci 112: […], 1999, Epple, et al., Early aldosterone effect in distal colon by transcriptional regulation of ENaC subunits. Am J Physiol Gastrointest Liver Physiol 278: G718-G724, 2000, Smith, et al., COMMD1 interacts with the COOH terminus of NKCC1 in Calu-3 airway epithelial cells to modulate NKCC1 ubiquitination. Am J Physiol Cell Physiol 305: C133-C146, 2013). HT-29 cells were grown in DMEM media (Invitrogen, Carlsbad Calif.) with 10% FBS and antibiotics. Cells were grown in a humidified 95%/5% CO2 incubator at 37° C. Experiments were performed at 70-80% confluence.
# as §1
# Statistical analysis. Images from films were imported into Adobe Photoshop (v 5.0), and further processed using Adobe Photoshop CS and ImageJ (National Institutes of Health) for the densitometry analysis. Data are reported as means±SD. Statistical analyses were performed with PRISM 4.0 (GraphPad Software, San Diego Calif.). Differences were analyzed with a one- or a two-way repeated measures ANOVA as appropriate or a two-way ANOVA followed by Bonferroni post hoc analyses that were corrected for multiple comparisons. Values of P <0.05 were considered significant.
# SGK1 and Nedd4-2 = SGK1 and Nedd4-2 phosphorylation in HT-29 cells, Western blot; details: 9 h
# Method: FIG. 25 is a blot showing ALD modulation of NKCC1 via the ALD-SGK1-Nedd4-2 pathway. HT-29 cells were treated with ALD (1 μM) or ALD (1 μM)+GSK650394 (50 μM) for 9 h. Cell lysates were analyzed by Western blot as indicated. Blots are representative of 3 independent experiments. Left: controls. Middle: ALD increases the phosphorylations of SGK1 and Nedd4-2, concomitantly there is an increased induction of NKCC1 protein expression (1st row).
# as §1
# NKCC1 ubiquitination = assay: Immunoprecipitation (autoubiquitination assay) of NKCC1 in HT-29 cells; details: MG132 20 μM 2 h, then ALD 1 μM and/or GSK 650394 50 μM for 24 h
# Method: Immunoprecipitation (autoubiquitination assay) and western blot analysis. An autoubiquitination assay was followed (Garg, et al., Effect of the Na—K-2Cl cotransporter NKCC1 on systemic blood pressure and smooth muscle tone. Am J Physiol Heart Circ Physiol 292: H2100-H2105, 2007). Cell extracts were prepared in a modified radioimmunoprecipitation assay 1 (RIPA) buffer, containing the following (in mM): 50 Tris·HCl at pH 7.4, 150 NaCl, 1 EDTA, and 1 dithiothreitol with 1% Nonidet P-40, 0.1% SDS; in a 1:200-diluted protease inhibitor cocktail (Sigma), containing the following (in mM): 1 PMSF, 10 NEM, and 0.1 iodoacetamide Immunoprecipitations were accomplished using a rabbit polyclonal anti-NKCC1 antibody (Cell Signaling). Antibody was bound to lysate with endogenous NKCC1, and then beads were added. Bound proteins were eluted in 1× SDS sample buffer, fractionated on an SDS-polyacrylamide gel, transferred onto a […] membrane (GE Healthcare, Piscataway, N.J.), and immunoblotted with anti-ubiquitin antibody visualized using enhanced chemiluminescence detection reagents (Pears, Shelton Conn.) according to the manufacturer's instructions.
# Immunoblotting with anti-ubiquitin antibody was performed as described above.
# ALD decreases the endogenous ubiquitination of NKCC1 and inhibition of SGK1 activation blocks this downregulation. […]
# NKCC1 [2] = assay: Tl-uptake in single HT-29 cells (FluxOR) for NKCC1 activity; details: 24 single HT-29 cells per condition
# From the text: Tl-uptake in single cells for the detection of NKCC1 activity. To measure NKCC1 activity, we used a fluorescence assay to assess cotransporter activity in single isolated HT-29 cells (Delpire & Austin, Kinase regulation of Na^+—K^+-2Cl^− cotransport in primary afferent neurons. J Physiol 588: 3365-3373, 2010, Geng, et al., The Ste20 kinases SPAK and OSR1 regulate NKCC1 function in sensory neurons. J Biol Chem 284: 14020-14028, 2009, Weaver, et al., A thallium-sensitive, fluorescence-based assay for detecting and characterizing potassium channel modulators in mammalian cells. J Biomol Screen 9: 671-677, 2004). HT-29 cells were incubated at 37° C./5% CO2 for 24 h before use. […] For the detection of fluorescence, the preincubation solution was removed, and the cells were treated with a 340.5 mosM hypertonic stimulus solution containing the following (in mM): (2.8 TISO4, 140 NaCl, 2 KCl, 2 CaCl2, 0.8 MgSO4, 5 glucose, 20 HEPES, 27 sucrose, 1 ouabain, and 2.7 probenecid) in the presence or absence of 20 μM bumetanide. […] FluxOR fluorescence (excitation/emission: 488/525 nm) was recorded after 90 s upon addition of 2.8 mM […] to the external medium. […]
# Influence of ALD on NKCC1 transporter activity. […] To test this hypothesis, a more efficient and sensitive method, fluorescence Ion flux assays was adopted to measure NKCC1 transporter activity. […]
# Na,K-ATPase = Na,K-ATPase mRNA expression in HT-29 cells; details: 5 mM, 24 hr, HT-29, compared to vehicle treatment; preliminary data
# Method: FIG. 37 is a blot showing the up-regulation of Na, K-ATPase with NH4Cl. L is the DNA ladder, C is the control (vehicle treatment), NH4CL is treatment with 5 mM NH4Cl for 24 hours.
# Ammonium chloride (NH4Cl) as part of a proposed treatment of presbycusis is based on the fact that NH4Cl has been used with FDA approval as a diuretic; NH4Cl increases NKCC1 protein expression and activity in several studies in other physiological systems (Jayakumar et al. 2008; Ikebe et al. 2001); c) NH4Cl can also increase Na, K-ATPase activity (Masui et al. 2002; Garcon et al. 2007). For large doses, NH4Cl can induce metabolic acidosis, but in lower doses taken orally, there are no significant side effects in the short term.
compound,measurement,setting,value
"CCN(CC)CCCC(C)Nc1ccnc2cc(Cl)ccc12 (centres unmarked) [CQ, chloroquine]",lysosome pathway markers LC3II and LAMP-2 expression levels,"LC3-I, -II, and LAMP-2",significant upregulation of LC3II and LAMP-2 expression levels
O=C(O)c1ccc(-c2c[nH]c3ncc(-c4ccccc4)cc23)cc1C1CCCC1 [GSK 650394],NKCC1 protein expression with ALD in the presence of SGK1 inhibitor,"NKCC1 [1]; ALD 1 μM + GSK 650394 50 μM, 9 h",did not increase protein expression of NKCC1
same,total protein expressions of SGK1 and Nedd4-2,SGK1 and Nedd4-2; ALD 1 μM + GSK 650394 50 μM,showed no differences
same,phosphorylation of SGK1 and Nedd4-2,"SGK1 and Nedd4-2; ALD 1 μM, GSK 650394 50 μM",blocked phosphorylation of SGK1 and Nedd4-2
same,endogenous ubiquitinated NKCC1,NKCC1 ubiquitination,reduces the ability of ALD to suppress NKCC1 ubiquitination
CC(C)C[C@@H](C=O)NC(=O)[C@H](CC(C)C)NC(=O)[C@H](CC(C)C)NC(=O)OCc1ccccc1 [MG132] (Cbz-Leu-Leu-Leu-aldehyde),lysosome pathway markers LC3II and LAMP-2 expression levels,"LC3-I, -II, and LAMP-2",without increasing lysosome pathway markers
same,induction of NKCC1 protein expression,"NKCC1 [1]; ALD 1 μM, MG-132 20 μM, CQ 50 μM, 9 h",induce NKCC1 protein expression similarly
same,NKCC1 protein expression,"NKCC1 [1]; MG132, ALD 1 μM, 3, 6, or 9 h",effect of ALD on NKCC1 expression was mimicked by MG132
same,bumetanide-sensitive Tl+ uptake fluorescence,NKCC1 [2],identical enhancements similar to the ALD treatment alone
"Cl.N [NH4Cl, Ammonium chloride]","mRNA expression of Na,K-ATPase","Na,K-ATPase","enhances the mRNA expression of Na,K-ATPase"
COC(=O)[C@@H]1CC2=CC(=O)CC[C@]2(C)[C@@]23O[C@@H]2C[C@@]2(C)[C@@H](CC[C@@]24CCC(=O)O4)[C@H]13 [eplerenone],effect on ALD upregulation of NKCC1 protein expression,NKCC1 [1]; simultaneous ALD (1 μM) and eplerenone (20 μM),prevented the ALD upregulation of NKCC1 protein expression
